Experimental data from US7476670B2, “Purine derivatives, method for preparing, pharmaceutical compositions and novel use” (Aventis Pharma S.A., priority 2003, dated 2009).
Converted amounts (≈) assume the structure as drawn.

What was measured:
SRC kinase = target: T1, SRC kinase (Homo sapiens, UniProt P12931); assay: Assay for inhibition of SRC kinase activity; assay type: biochemical; conditions: fluorescence polarization, read-out: percentage inhibition at 20 μM
T1 construct: purchased Upstate Biotechnology 14-117
T1 sequence (P12931 whole entry): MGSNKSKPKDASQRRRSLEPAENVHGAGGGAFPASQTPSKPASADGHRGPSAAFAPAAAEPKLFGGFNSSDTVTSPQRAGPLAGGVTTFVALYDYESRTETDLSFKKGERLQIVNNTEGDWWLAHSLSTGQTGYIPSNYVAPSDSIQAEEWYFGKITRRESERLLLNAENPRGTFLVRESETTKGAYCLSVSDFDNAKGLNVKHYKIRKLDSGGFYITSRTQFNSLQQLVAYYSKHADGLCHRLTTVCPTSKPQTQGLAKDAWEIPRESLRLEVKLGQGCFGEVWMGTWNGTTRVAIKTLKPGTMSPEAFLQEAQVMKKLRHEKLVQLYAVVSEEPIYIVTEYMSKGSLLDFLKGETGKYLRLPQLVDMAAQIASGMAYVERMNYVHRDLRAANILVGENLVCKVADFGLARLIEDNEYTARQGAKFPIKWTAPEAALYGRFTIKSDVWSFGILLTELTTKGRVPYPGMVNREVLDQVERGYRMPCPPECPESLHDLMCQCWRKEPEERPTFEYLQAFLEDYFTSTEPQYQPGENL
Procedure: 2) Assay for Inhibition of SRC Kinase Activity
The inhibition is determined by fluorescence polarization, the […] kinase phosphorylates a peptide detected by adding an anti-phosphopeptide antibody coupled to a fluorescent label.
The assay is carried out in a final volume of 50 μl; all the reagents are prepared in a buffer: • 25 mM HEPES/NaOH pH 7.6 • 5 mM MgCl2 • 2 mM MnCl2 • 50 μM Na2VO4 5 μl of the 10-times concentrated inhibitor are added to 25 μl of enzyme (12 U/ml final concentration), (Upstate Biotechnology ref 14-117). After incubation for 5 minutes at ambient temperature, 10 μl of PolyGluTyr 4/1 (150 ng/ml final concentration) and 10 μl of ATP (5 μM final concentration) are added. The detection is carried out after incubation for 20 minutes at ambient temperature. • Results obtained expressed as percentage inhibition at 20 μM • Example 8 98% • Example 15 99% • Example 20 99% • Example 24 99% • Example 27 95% • Example 30 99% • Example 32 100% • Example 38 95% 3) Assay for Inhibition of CDK2 Activity

CaCiv1 = CaCiv1 (Candida albicans, UniProt A0A1D8PH53); assay: Assay for inhibition of CIV-CDK (CIV1) activity; assay type: biochemical; conditions: CaCiv1 with Cdk2 substrate, [33P]ATP, 30 min ambient temperature; read-out: IC50 as micromolar
CaCiv1, sequence (A0A1D8PH53 entry or part of it): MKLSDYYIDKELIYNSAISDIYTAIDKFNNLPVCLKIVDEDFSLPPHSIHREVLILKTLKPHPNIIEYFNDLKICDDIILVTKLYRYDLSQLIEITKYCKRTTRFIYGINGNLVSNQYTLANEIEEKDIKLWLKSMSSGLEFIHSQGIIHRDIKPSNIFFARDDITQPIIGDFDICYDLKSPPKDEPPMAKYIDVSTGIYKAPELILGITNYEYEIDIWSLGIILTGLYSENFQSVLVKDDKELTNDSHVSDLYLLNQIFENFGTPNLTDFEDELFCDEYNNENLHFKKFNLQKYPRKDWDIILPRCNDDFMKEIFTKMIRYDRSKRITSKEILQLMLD
Text: 1) Assay for Inhibition of CIV-CDK (CIV1) Activity
a) Preparation of the Reagents

Aspergillus fumigatus = assay: Minimum inhibitory concentration in liquid medium, micro method (NCCLS M27-A); assay type: cell-based; conditions: at least 80% inhibition of growth, read after 48-72 h at 37° C., RPMI 1640
Procedure: (§1) The assay is carried out in a final volume of 40 μl; all the reagents are prepared in a buffer: • 50 mM HEPES pH 7.5 • 0.03% triton X100 • 10 mM MgCl2 • 5% Glycerol • 1 mM DTT 10 μl of the 10-times concentrated inhibitor are added to 5 μl of enzyme (75 ng final concentration), and 5 μl of peptide (1 μM final concentration), then 2.5 μl of incubation buffer containing 40 μM ATP and 2.5 μl of radiolabeled ATP, [^33P]ATP (500 nCi), are added. After incubation for 15 minutes at ambient temperature, 10 μl of incubation buffer containing 192 nM of substrate. […] Reference method for broth dilution antifungal susceptibility testing of yeasts. Approved Standard M27-A. NCCLS, Villanova, Pa.); the minimum concentration with which a visible decrease is observed in the cloudiness of the cell growth (at least 80% compared to a control without product) is the Minimum Inhibitory Concentration (MIC) of the antifungal agent with respect to the strain tested.
(§2) RPMI 1640 medium (liquid) without L-glutamine is supplemented with L-glutamine (0.3 g/l or 10.5 ml of a solution at 200 mM) and buffered with 34.54 g/l (0.165 M) of morpholinepropanesulfonic acid (MOPS). The medium is sterilized by filtration. 100 μl of RPMI medium are distributed into each well of a 96-well plate. The appropriate volume. of the antifungal solution is distributed in the first column of the microplate and supplemented with 200 μl of medium. Doubling dilutions are made so as to establish a range of 11 concentrations in each line of the microplate. The 12th well of each row will serve as a growth control. The cell suspension is prepared from a culture (liquid or agar) or from a frozen vial, and is diluted in RPMI medium so as to obtain a cell suspension at 5×10^3−2×10^4 cells/ml. 100 μl of the cell suspension are distributed in the microplate. For all species of Candida, the MIC is read after 24-48 h, and for Cryptococcus and Aspergillus after 48-72 h, of incubation at 37° C. in a normal atmosphere. The MIC is read by visual reading, determining the well which contains the lowest dose of antifungal agent which causes at least 80% inhibition of the growth of the fungus.

Candida albicans = assay: as above; assay type: cell-based; conditions: read-out: MIC Candida albicans
Procedure: as §1, §2

Candida glabrata = assay: as above; assay type: cell-based; conditions: Nakaseomyces glabratus, read-out: MIC Candida glabrata
Procedure: as §1, §2

EGF tyr Kinase = target: T2, EGF tyr Kinase (Homo sapiens, UniProt P00533); assay: Assay for inhibition of EGF tyr kinase activity; assay type: biochemical; conditions: [33P]ATP, read-out: percentage inhibition at 20 μM
T2 construct: purchased Tebu SE-124
T2 sequence (P00533 25-1210): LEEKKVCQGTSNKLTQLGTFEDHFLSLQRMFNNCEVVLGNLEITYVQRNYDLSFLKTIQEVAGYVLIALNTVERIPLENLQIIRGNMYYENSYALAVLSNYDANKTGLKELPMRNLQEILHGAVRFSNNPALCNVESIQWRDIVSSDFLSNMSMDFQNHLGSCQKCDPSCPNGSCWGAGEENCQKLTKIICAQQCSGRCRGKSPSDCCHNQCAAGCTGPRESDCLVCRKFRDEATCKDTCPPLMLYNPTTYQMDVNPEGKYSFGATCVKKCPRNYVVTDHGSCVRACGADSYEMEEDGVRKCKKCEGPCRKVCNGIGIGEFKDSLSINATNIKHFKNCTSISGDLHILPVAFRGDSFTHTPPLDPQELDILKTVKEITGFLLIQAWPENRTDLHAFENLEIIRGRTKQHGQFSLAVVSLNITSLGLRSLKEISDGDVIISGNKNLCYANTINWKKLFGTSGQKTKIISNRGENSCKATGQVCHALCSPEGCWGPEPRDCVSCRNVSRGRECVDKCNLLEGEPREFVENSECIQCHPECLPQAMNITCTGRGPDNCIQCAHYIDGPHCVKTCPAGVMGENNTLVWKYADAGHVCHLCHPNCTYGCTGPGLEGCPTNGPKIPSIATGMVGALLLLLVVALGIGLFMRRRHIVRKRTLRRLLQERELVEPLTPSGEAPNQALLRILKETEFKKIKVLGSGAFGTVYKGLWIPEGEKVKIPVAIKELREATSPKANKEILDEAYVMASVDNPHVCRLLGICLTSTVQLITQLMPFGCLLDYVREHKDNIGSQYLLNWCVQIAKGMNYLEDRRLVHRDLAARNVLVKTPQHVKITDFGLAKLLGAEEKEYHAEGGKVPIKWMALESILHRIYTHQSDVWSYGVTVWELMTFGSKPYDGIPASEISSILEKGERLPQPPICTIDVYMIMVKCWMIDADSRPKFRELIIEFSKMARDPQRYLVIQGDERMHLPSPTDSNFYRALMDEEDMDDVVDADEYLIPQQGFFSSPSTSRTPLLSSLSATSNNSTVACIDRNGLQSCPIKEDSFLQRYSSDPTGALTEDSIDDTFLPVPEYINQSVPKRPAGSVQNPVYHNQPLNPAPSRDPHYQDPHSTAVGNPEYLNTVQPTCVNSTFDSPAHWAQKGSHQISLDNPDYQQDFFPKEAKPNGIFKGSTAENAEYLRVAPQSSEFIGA
Procedure: (§3) The inhibition of the kinase activity is determined by measuring the phosphorylation of its substrate peptide.
The assay is carried out in a final volume of 100 μl.
The incubation buffer is as follows:
• 5 mM Hepes/Tris pH 7.4 • 2% Glycerol • 0.2% triton X100 10 μl of the 10-times concentrated inhibitor are added to 20 μl of incubation buffer containing 1 U/μl final concentration of the enzyme (Tebu, SE-124); 30 μl of incubation buffer containing 0.43 mg/ml final concentration of peptide substrate are then added along with 20 μl of incubation buffer containing 0.4 μM of enzyme and, finally, 20 μl of 6 mM tris/HCl pH 7.4, 15 mM MgCl2 buffer containing 10 μM ATP and radiolabeled ATP, [^33P]ATP (0.25 μCi), are added. The reaction is stopped after incubation for 60 minutes at 30° C. • Results obtained expressed as percentage inhibition at 20 μM • Example 20 100% 10) Assay for Inhibition of AKT Activity

ZAP kinase = target: T3, ZAP kinase (Homo sapiens, UniProt P43403); assay: Assay for inhibition of ZAP kinase activity; assay type: biochemical; conditions: fluorescence polarization, read-out: percentage inhibition at 20 μM
T3 construct: purchased Panvera P2782
T3 sequence (P43403 1-619): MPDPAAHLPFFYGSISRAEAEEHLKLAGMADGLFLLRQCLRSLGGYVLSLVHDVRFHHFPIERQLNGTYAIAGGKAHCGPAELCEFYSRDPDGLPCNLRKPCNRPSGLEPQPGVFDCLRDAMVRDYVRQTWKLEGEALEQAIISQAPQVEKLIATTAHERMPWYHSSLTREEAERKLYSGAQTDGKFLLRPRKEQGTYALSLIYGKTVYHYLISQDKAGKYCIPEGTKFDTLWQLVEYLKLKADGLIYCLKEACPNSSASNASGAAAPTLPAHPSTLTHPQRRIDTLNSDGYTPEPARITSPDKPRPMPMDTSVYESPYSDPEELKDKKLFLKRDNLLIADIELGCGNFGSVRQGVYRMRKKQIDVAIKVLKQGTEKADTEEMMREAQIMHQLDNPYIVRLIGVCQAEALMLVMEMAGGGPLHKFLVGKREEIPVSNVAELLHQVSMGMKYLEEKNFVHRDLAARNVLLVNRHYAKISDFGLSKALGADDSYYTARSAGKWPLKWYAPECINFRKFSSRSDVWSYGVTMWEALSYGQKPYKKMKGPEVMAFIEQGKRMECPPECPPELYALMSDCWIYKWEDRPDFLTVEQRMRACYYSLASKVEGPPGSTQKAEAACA
Procedure: The inhibition of the kinase activity is determined by fluorescence polarization, the ZAP kinase phosphorylates a peptide detected by adding an anti-phosphopeptide antibody coupled to a fluorescent label.
The assay is carried out in a final volume of 50 μl; all the reagents are prepared in a buffer: • 20 mM Tris/HCl pH 7.7 • 7 mM MnCl2 • 50 μM Na2VO4 5 μl of the 10-times concentrated inhibitor are added to 25 μl of enzyme (0.7 μg/ml final concentration) (Panvera ref P2782). After incubation for 5 minutes at ambient temperature, 10 μl of PolyGT (300 ng/ml final concentration) and 10 μl of ATP (0.25 μM final concentration) are added. The detection is carried out after incubation for 15 minutes at ambient temperature. • Results obtained expressed as percentage inhibition at 20 μM • Example 8 98% • Example 20 95% • Example 24 96% 7) Assay for Inhibition of Casein Kinase II Activity

FAK = FAK (Homo sapiens, UniProt Q05397); assay: Assay for inhibition of FAK activity (autophosphorylation); assay type: biochemical; conditions: fluorescence polarization, ATP 1 μM; read-out: IC50s expressed as micromolar
FAK, sequence (Q05397 whole entry, species assumed): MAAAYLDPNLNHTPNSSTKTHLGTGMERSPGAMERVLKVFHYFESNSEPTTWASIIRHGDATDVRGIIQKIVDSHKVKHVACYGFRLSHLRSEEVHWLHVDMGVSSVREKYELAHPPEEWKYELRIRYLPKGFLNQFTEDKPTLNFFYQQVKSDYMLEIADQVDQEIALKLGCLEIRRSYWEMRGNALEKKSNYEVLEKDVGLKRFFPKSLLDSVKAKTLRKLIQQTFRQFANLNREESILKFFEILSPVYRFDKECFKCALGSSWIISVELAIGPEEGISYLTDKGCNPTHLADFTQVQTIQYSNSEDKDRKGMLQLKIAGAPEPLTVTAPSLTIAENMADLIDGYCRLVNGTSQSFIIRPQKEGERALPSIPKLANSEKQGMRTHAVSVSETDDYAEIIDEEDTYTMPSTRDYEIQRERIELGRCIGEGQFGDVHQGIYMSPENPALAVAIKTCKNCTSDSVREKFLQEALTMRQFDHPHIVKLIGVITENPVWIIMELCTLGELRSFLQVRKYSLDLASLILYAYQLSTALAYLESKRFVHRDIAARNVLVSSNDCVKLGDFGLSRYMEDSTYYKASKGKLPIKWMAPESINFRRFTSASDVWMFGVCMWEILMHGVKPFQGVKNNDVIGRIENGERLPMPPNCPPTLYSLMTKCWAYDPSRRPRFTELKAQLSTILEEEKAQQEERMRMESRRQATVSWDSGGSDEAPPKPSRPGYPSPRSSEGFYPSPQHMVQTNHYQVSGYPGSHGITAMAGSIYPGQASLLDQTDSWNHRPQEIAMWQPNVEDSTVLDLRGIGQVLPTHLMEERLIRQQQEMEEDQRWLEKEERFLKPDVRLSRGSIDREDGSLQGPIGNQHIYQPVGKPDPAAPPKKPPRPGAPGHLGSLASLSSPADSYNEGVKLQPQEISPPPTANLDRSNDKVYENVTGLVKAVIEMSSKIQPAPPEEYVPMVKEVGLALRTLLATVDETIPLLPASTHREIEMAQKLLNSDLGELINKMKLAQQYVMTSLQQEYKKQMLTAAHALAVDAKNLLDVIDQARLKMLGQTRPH
Procedure: The inhibition of the kinase activity is determined by fluorescence polarization, the autophosphorylation of FAK is detected by adding an anti-phosphoprotein antibody coupled to a fluorescent label.
(§4) The assay is carried out in a final volume of 30 μl; all the reagents are prepared in a buffer: • 50 mM HEPES pH 7.5 • 0.03% triton X100 • 10 mM MgCl2 • 5% Glycerol • 1 mM DTT 10 μl of the 10-times concentrated inhibitor are added to 5 μl of enzyme (100 ng final concentration), and 5 μl of incubation buffer and 10 μl of ATP (1 μM final concentration) are added.

JNK3 kinase = JNK3 kinase (Homo sapiens, UniProt P53779); assay: Assay for inhibition of JNK3 activity; assay type: biochemical; conditions: fluorescence polarization, ATP 6 μM; read-out: IC50s expressed as micromolar
JNK3 kinase, sequence (P53779 whole entry): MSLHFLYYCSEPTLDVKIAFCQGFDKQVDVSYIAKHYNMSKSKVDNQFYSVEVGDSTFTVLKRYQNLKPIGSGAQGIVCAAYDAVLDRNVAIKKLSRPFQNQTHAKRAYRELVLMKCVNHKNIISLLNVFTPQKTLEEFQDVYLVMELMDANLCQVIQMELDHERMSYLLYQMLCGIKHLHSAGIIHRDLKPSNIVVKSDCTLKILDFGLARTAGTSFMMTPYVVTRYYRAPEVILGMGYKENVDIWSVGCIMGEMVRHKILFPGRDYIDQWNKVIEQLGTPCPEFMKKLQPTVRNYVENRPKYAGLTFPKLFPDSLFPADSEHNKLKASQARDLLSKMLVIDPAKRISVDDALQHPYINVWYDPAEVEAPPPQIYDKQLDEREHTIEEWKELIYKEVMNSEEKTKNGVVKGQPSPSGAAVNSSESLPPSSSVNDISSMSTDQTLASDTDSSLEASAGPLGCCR
Procedure: The inhibition of the kinase activity is determined by fluorescence polarization, the JNK3 kinase phosphorylates a peptide detected by adding an anti-phosphopeptide antibody coupled to a fluorescent label.
as §4, with “of enzyme (40 ng final” for “of enzyme (100 ng final”, “incubation buffer containing 100 ng of substrate and 10” for “incubation buffer and 10”, “of ATP (6 μM final” for “of ATP (1 μM final”

PLK1 = PLK1 (Homo sapiens, UniProt P53350); assay: Assay for inhibition of PLK1 activity; assay type: biochemical; conditions: [33P]ATP; read-out: IC50s expressed as micromolar
PLK1, sequence (P53350 whole entry, species assumed): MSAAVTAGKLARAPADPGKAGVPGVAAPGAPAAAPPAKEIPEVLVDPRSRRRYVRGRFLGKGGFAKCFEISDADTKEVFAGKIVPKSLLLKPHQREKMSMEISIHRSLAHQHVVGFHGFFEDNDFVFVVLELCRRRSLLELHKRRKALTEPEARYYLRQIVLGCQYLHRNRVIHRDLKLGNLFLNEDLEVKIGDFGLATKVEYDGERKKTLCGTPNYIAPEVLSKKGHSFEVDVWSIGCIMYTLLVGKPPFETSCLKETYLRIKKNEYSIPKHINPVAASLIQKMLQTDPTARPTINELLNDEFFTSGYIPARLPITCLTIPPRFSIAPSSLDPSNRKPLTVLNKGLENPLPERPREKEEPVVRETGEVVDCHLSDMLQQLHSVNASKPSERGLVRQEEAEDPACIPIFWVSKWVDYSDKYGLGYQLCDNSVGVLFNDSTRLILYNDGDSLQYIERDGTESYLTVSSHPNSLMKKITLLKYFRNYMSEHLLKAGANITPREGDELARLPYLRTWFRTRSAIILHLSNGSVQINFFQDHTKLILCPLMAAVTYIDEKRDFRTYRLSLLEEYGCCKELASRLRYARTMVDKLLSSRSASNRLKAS
Procedure: as §3, §1

Compound | inhibition at 20 µM (SRC kinase) | IC50 (CaCiv1) | MIC Aspergillus fumigatus (Aspergillus fumigatus) | MIC (Candida albicans) | MIC (Candida glabrata) | inhibition at 20 µM (EGF tyr Kinase) | inhibition at 20 µM (ZAP kinase) | IC50 (FAK) | IC50 (JNK3 kinase) | IC50 (PLK1)
N[C@H]1CC[C@H](Nc2nc(-n3cnc4cc(OCc5ccccc5)ccc43)c3nc[nH]c3n2)CC1 [Example 20, Trans-N-[6-[5-(phenylmethoxy)-1H-benzimidazol-1-yl]-9H-purin-2-yl]-1,4-cyclohexanediamine] | 99% | 1.7 µM | 32 µg/mL (≈ 70.4 µM) | 32 µg/mL (≈ 70.4 µM) | 16 µg/mL (≈ 35.2 µM) | 100% | 95% | 1.6 µM | – | –
Trans-N-[6-(5,6-dichloro-2,3-dihydro-1H-indol-1-yl)-9H-purin-2-yl]-1,4-cyclohexanediamine dihydrochloride [Example 1] | – | 0.8 µM | – | – | – | – | – | – | 0.29 µM | 0.21 µM
